A short description of data set [1]: Stability of solvate/hydrate forms in the absence of solvent or at low humidity. The data set is classed as physicochemical.
Data set [2] in a line: Slurry in water (conversion to hydrate). The data set is classed as physicochemical.
Data set [3] in a line: Slurry interconversion experiments in pure isoamyl alcohol. It is filed as physicochemical. As to conditions: Form B versus Form C in pure isoamyl alcohol. As for the experimental part: Form C was derived only from isoamyl alcohol and was initially formed at 5° C. It is crystalline by XRPD (FIG. 13) and PLM. […] This weight loss was divided into two broad steps: a 5.2% weight loss was observed from ambient to 105° C. and an additional 9.8% weight loss was observed from 105-125° C. (bp of isoamyl alcohol: 130° C.). The theoretical weight loss for a mono-solvate is 16.1% and 8.7% for a hemi-solvate. The crystal structure of Form C was solved. Form C is the mono-isoamyl alcoholate. […] The solvate, Form C, was favored at temperatures of 15° C. or below.

A short description of data set [4]: Dynamic vapor sorption (DVS). The data set is classed as physicochemical. As to conditions: for weight gain in DVS / dynamic moisture sorption experiment: at 95% RH. As to the method:
Automated vapor sorption data were collected on a TA Instruments Q5000SA vapor sorption analyzer. NaCl and PVP were used as calibration standards. Samples were not dried prior to analysis. Adsorption and desorption data were collected at 25° C. over a range from 5 to 95% RH at 10% RH increments under a nitrogen purge. Samples were held at the corresponding RH for 1 hour prior to moving to the next RH range. Data were not corrected for the initial moisture content of the samples.

Data set [5] is described as follows: Solid-state physical form stability (accelerated 40° C./75% RH, high humidity, API stability studies). It is filed as physicochemical.
Data set [6] in a line: Isothermal TGA dehydration. It is filed as physicochemical. As to the method:
Weight change as a function of temperature was determined by TGA. […] 0.1-2 milligrams of the sample were placed in a DSC pan located on the sample holder. The sample holder was heated in the TGA from 25 to 300° C. at a heating rate of 10° C. min^−1. Dry N2 gas was used for purging. Isothermal experiments were conducted by heating the sample at 10° C./min to the desired temperature and then holding the sample at that temperature for at least 200 minutes.

For a further data set, the system named is PI3K. As to conditions: cited from earlier work.
Data set [7] in a line: pKa and log P by potentiometric titration. The data set is classed as physicochemical. As to the method:
GDC-0032 API is a white to off-white solid. It is crystalline as confirmed by the sharp peaks of its XRPD pattern and has a melting point of 258° C. Several physical forms of GDC-0032 free base, including an anhydrous form (Form B), several hydrates, and several solvates, have been identified to date. Form B has a melting point range of 256° C. to 258° C. Form B has been produced consistently in the API process to date. […] The reproducibility and stability of the crystalline form will be monitored during API synthesis and stability. GDC-0032 is non-hygroscopic, with less than 0.2% weight gain at 95% RH in the dynamic moisture sorption experiment.

The nature of data set [8]: Solubility of GDC-0032 in methanol at high temperature. As to conditions: approximately 15 mg in 500 mL methanol, 24 hours equilibration. The data set is classed as physicochemical. As for the experimental part: Solubility of GDC-0032 in methanol at high temperature: Solubility of GDC-0032 in methanol at 45° C. and 55° C. was measured. Two slurries were prepared with approximately 15 mg of starting material and 500 mL of methanol. The slurries were subsequently placed in two ovens, at 45° C. and 55° C. each. After 24 hours of equilibration the two slurries were visually checked. In both cases the dissolution was not complete. The solids were separated from the mother liquor and were harvested both wet and dried for XRPD and digital imaging. The mother liquor was evaporated and the solids were also analyzed by XRPD and digital imaging.

Data set [9] in a line: Solubility assessment as a function of pH and in different buffers and formulation vehicles. It is filed as physicochemical. The source says:
The solubility behavior of GDC-0032 API is summarized as a Function of pH and in Different Buffers and Formulation Vehicles

Data set [10] is described as follows: Solubility in solvents/solvent mixtures at two temperatures (visual dissolution, HPLC for suspensions). The data set is classed as physicochemical. As to the method: The solubility of GDC-0032 was determined in various solvents/solvent mixtures at two different temperatures: Ethanol absolute, Methanol, Isopropanol, Acetone, Ethyl Acetate, Isopropyl acetate, Tetrahydrofuran, 2-Butanone, Methanol/Water (50/50), 2,2,2-Trifluoroethanol (TFE), 2-Butanone, TFE/Ethyl acetate (50/50), TFE/Acetone (50/50), TFE/Water (50/50), Acetonitrile, Acetonitrile/water (50/50), Acetone/water (50/50), Tert-butyl methyl ether, n-Heptane, Ethanol/Ethyl acetate (50/50), Ethanol/Acetone (50/50), Methanol/water (90/10), Ethanol/Acetonitrile (50/50).
For each experiment, approximately 5-10 mg of material was weighed in 40 mL vials. […] In each vial, the solvent was added to the solid in steps of 50 μL until dissolution or until a minimum concentration of 0.2 mg/mL was reached. Dissolution was assessed visually at two temperatures, room temperature (RT) and a higher temperature (Tmax=50 or 70° C., selected such that the boiling point of the solvent was higher than Tmax). Solubility was measured by HPLC for suspensions.

≈ marks a conversion by molar mass, not a printed value.

As to `C1COCCO1.Cc1nc(-c2cn3c(n2)-c2ccc(-c4cnn(C(C)(C)C(N)=O)c4)cc2OCC3)n(C(C)C)n1.Cc1nc(-c2cn3c(n2)-c2ccc(-c4cnn(C(C)(C)C(N)=O)c4)cc2OCC3)n(C(C)C)n1` [Form AA], the “stability in the absence of the solvate solvent” value (“stability in the absence” for short) in data set [1] was “not stable”.

Turning to `C1CCOC1.Cc1nc(-c2cn3c(n2)-c2ccc(-c4cnn(C(C)(C)C(N)=O)c4)cc2OCC3)n(C(C)C)n1` [Form AC], in [1], the “stability in the absence” value was “not stable”.

Take `CO.Cc1nc(-c2cn3c(n2)-c2ccc(-c4cnn(C(C)(C)C(N)=O)c4)cc2OCC3)n(C(C)C)n1` [Form A]: the “form obtained on slurrying in the presence of water” value in data set [2] (50° C.) was “Form D”. The “form obtained from water slurry experiment” value in [2] (room temperature, after drying) is “mixture of Form A and Form D”.

In the case of `Cc1nc(-c2cn3c(n2)-c2ccc(-c4cnn(C(C)(C)C(N)=O)c4)cc2OCC3)n(C(C)C)n1` [Form B], the “temperature at which the form is preferred/favored in slurry interconversion” value in data set [3] was at least 20 °C. Besides, in data set [4], the “physical form after the DVS experiment” value is listed as “still Form B” and the “weight gain in DVS / dynamic moisture sorption experiment” value was “less than 0.3%”. In [2] (water, with and without Tween 80), the “conversion on slurrying in water” value is given as “no conversion to the hydrate”. For the same compound, the “physical form after accelerated stability tests” value in [5] (40° C. and 75% RH) is reported as “unchanged”. Moreover, the “form change when exposed to high humidity” value in [5] (high humidity for at least 6 months) is “does not exhibit any form change”.

As to `CC(C)CCO.Cc1nc(-c2cn3c(n2)-c2ccc(-c4cnn(C(C)(C)C(N)=O)c4)cc2OCC3)n(C(C)C)n1` [Form C], the “temperature at which the form is preferred/favored in slurry interconversion” value in data set [3] was at most 15 °C.

Take `Cc1nc(-c2cn3c(n2)-c2ccc(-c4cnn(C(C)(C)C(N)=O)c4)cc2OCC3)n(C(C)C)n1.O` [Form D]: the “time to complete dehydration on the TGA” value in data set [6] (isothermal at 60° C.) is at most 40 min; in data set [6] (isothermal at 100° C.) it was at most 15 min.

In the case of `Cc1nc(-c2cn3c(n2)-c2ccc(-c4cnn(C(C)(C)C(N)=O)c4)cc2OCC3)n(C(C)C)n1.O` [Form X], in data set [1] (at 20° C.), the “humidity at which Form X reversibly converts to Form Y” value is listed as 10-20 % RH.

On to `CC(C)C(=O)C(C)C.Cc1nc(-c2cn3c(n2)-c2ccc(-c4cnn(C(C)(C)C(N)=O)c4)cc2OCC3)n(C(C)C)n1` [Form Z], for which the “stability in the absence” value in [1] was “converts to Form B”.

Usually logP stands for the decadic logarithm of the partition coefficient of the neutral form, usually between octanol and water. A low value points to a more hydrophilic compound. By pKa is commonly meant the pH at which an ionisable group is half protonated. Usually solubility stands for how much of the substance goes into solution per volume. Low values mean a poorly soluble substance, high ones a readily soluble substance. Regarding `Cc1nc(-c2cn3c(n2)-c2ccc(-c4cnn(C(C)(C)C(N)=O)c4)cc2OCC3)n(C(C)C)n1` [GDC-0032, 2-(4-(2-(1-isopropyl-3-methyl-1H-1,2,4-triazol-5-yl)-5,6-dihydrobenzo[f]imidazo[1,2-d][1,4]oxazepin-9-yl)-1H-pyrazol-1-yl)-2-methylpropanamide], the “weight gain in DVS / dynamic moisture sorption experiment” value in data set [4] was “less than 0.2%”. Also, the PI3K activity result in the data set on PI3K was “potent”. The logP in [7] was 2.5. Besides, the pKa in [7] (weak base) turned out to be 3.19. The “physical form conversion in ongoing stability studies for the API” value in data set [5] is reported as “no physical form conversion”. Besides, the dissolution in methanol result in data set [8] (45° C.) and in data set [8] (55° C.) was “not complete” each time. The solubility in data set [9] (FaSSIF, pH 6.8, at 37° C.) is 22 µg/mL (≈ 47.8 µM); in data set [9] (FeSSIF, pH 5.0, at 37° C.), 270 µg/mL (≈ 586 µM); in data set [9] (aqueous buffer, 50 mM phosphate buffer, pH 6.5, at room temperature), 0.72 µg/mL (≈ 1.56 µM); in [9] (simulated gastric fluid, 0.1N HCl, pH 1.1, at room temperature), 54 µg/mL (≈ 117 µM); in data set [9] (water), 1.5 µg/mL (≈ 3.26 µM). In addition, the “solubility in 2,2,2-trifluoroethanol (TFE)” value in data set [10] is “high solubility”. In data set [10] (23 listed solvents/mixtures, RT and Tmax 50 or 70° C.), the “solubility in various solvents/solvent mixtures” value is “soluble in all except for Ethyl Acetate, Isopropyl acetate, Tetrahydrofuran, Tert-butyl methyl ether, and n-Heptane”.

The values above are taken from patent publication US9266903B2, “Polymorphs of 2-(4-(2-(1-isopropyl-3-methyl-1H-1,2,4-triazole-5-yl)-5,6-dihydrobenzo[F]imidazo [1,2-D][1,4]oxazepin-9-yl)-1H-pyrazol-1-yl)-2-methylpropanamide, methods of production, and pharmaceutical uses thereof” (Genentech, Inc., priority 2013, dated 2016).
